The values below come from ChEMBL document CHEMBL1201862, “PubChem BioAssay data set” (2004).

Test systems include A498; NCI-H226; SK-OV-3; SNB-75; K562; OVCAR-3; HL-60; SNB-19; SK-MEL-5; SK-MEL-28; RXF 393; A549; HOP-92; LOX IMVI; 786-0; RPMI-8226; HCT-15.
Common to all, as to test: inhibition of tumour cell growth, NCI panel, 48 h

The structures appear in SMILES notation.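 96-well plates; 48 h exposure; 5 concentrations. Endpoints by linear interpolation between flanking doses. Not reached: highest tested concentration assigned. Here, GI50 denotes the concentration required for 50% inhibition of growth.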 The source made the active and inactive calls. Rule as the data show it: active = GI50 up to about 1.1 µM and inactive = higher.

Take `Cc1ccc(NC(=O)C(=O)CC(=O)C2CCOC2=O)c(C)c1` (stereo not drawn): the GI50 was > 100 µM (inactive) with A498; > 100 µM (inactive) in the experiment on NCI-H226; > 100 µM (inactive) in the experiment on SK-OV-3; 76.2 µM (inactive) in the experiment on SNB-75; > 100 µM (inactive) with K562; > 100 µM (inactive) in the experiment with OVCAR-3. Further, the GI50 in the experiment with HL-60, in the experiment on SNB-19, in the experiment with SK-MEL-5, with SK-MEL-28, in the experiment on RXF 393 and with A549 was > 100 µM (inactive) each time. In addition, the GI50 with HOP-92 was > 100 µM (inactive); in the experiment with LOX IMVI it was > 100 µM (inactive); in the experiment with 786-0, > 100 µM (inactive); with RPMI-8226, > 100 µM (inactive); in the experiment with HCT-15, above 100 µM.
Regarding `COc1cc(/C=C\c2ccc(Cl)cc2)cc(OC)c1OC`, the GI50 in the experiment on A498 was 0.171 µM (active); in the experiment with NCI-H226 it was 0.24 µM (active); with SK-OV-3, 0.228 µM (active); in the experiment with SNB-75 it was 0.188 µM (active); in the experiment on K562 it was 0.033 µM (active); in the experiment on OVCAR-3, 0.102 µM (active). Moreover, the GI50 in the experiment on HL-60 was 0.0251 µM (active); in the experiment on SNB-19 it was 0.322 µM (active); with SK-MEL-5 it was 0.025 µM (active); with SK-MEL-28, 0.454 µM (active); in the experiment on RXF 393, 0.2 µM (active); in the experiment with A549, 0.196 µM (active). In addition, the GI50 with HOP-92 was 0.326 µM (active); in the experiment with LOX IMVI, 0.175 µM (active); in the experiment with 786-0, 0.113 µM (active); in the experiment on RPMI-8226, 0.143 µM (active); with HCT-15, 0.196 µM.
Turning to `FC(F)(F)c1cccc(C2SCc3nc4ccccc4n32)c1` (stereo not drawn), the GI50 with NCI-H226 was > 100 µM (inactive); with SK-OV-3, 26.8 µM (inactive); in the experiment on SNB-75, 29.8 µM (inactive); in the experiment on K562, 8.61 µM (inactive); in the experiment with OVCAR-3, 56 µM (inactive); in the experiment with HL-60 it was 5.75 µM (inactive). The GI50 in the experiment on SNB-19 was 51.3 µM (inactive); in the experiment on SK-MEL-5 it was 11 µM (inactive); in the experiment on SK-MEL-28 it was 65.9 µM (inactive); in the experiment on RXF 393 it was 33.1 µM (inactive); in the experiment on A549 it was 56.1 µM (inactive); in the experiment with HOP-92 it was 2.41 µM (inactive). Besides, the values for the GI50 in the experiment on 786-0 and in the experiment with RPMI-8226 were 61.5 µM (inactive) and 12.9 µM (inactive), respectively.
Turning to `C=C1C2CC(OC(C)=O)C3(C)C(c4ccoc4)OC(=O)[C@@H](O)[C@]13OC1C[C@H](OC(C)=O)C(C)(C)[C@H](C(O)C(=O)OC)[C@]12C` (stereo partly drawn), the GI50 in the experiment with A498 was > 100 µM (inactive); in the experiment on NCI-H226, > 100 µM (inactive); in the experiment on SK-OV-3 it was > 100 µM (inactive); in the experiment with SNB-75, 29.9 µM (inactive); in the experiment with K562 it was > 100 µM (inactive); with OVCAR-3, > 100 µM (inactive). Further, the GI50 was > 100 µM (inactive) in the experiment on HL-60; > 100 µM (inactive) in the experiment with SNB-19; > 100 µM (inactive) with SK-MEL-5; > 100 µM (inactive) with SK-MEL-28; > 100 µM (inactive) with A549; 4.17 µM (inactive) in the experiment with HOP-92. Also, the GI50 in the experiment with LOX IMVI was > 100 µM (inactive); with 786-0 it was > 100 µM (inactive); in the experiment on RPMI-8226, > 100 µM (inactive); in the experiment with HCT-15 it was above 100 µM.
As for `Clc1cccc2c1OCC1C(c3ccccc3)=NN(c3ccccc3)C21` (stereo not drawn), the GI50 in the experiment with A498 was > 100 µM (inactive); in the experiment on SK-OV-3, > 100 µM (inactive); in the experiment on SNB-75, > 100 µM (inactive); in the experiment on K562, 28.9 µM (inactive); in the experiment on OVCAR-3, > 100 µM (inactive); in the experiment on HL-60 it was 31.8 µM (inactive). The GI50 is 96.4 µM (inactive) with SNB-19; 23.8 µM (inactive) in the experiment on SK-MEL-5; > 100 µM (inactive) in the experiment with SK-MEL-28; > 100 µM (inactive) in the experiment on RXF 393; 66.2 µM (inactive) with A549; 64.4 µM (inactive) in the experiment with HOP-92. Also, the GI50 with LOX IMVI was 39.7 µM (inactive); with 786-0, 55.6 µM (inactive); in the experiment with RPMI-8226, 22.8 µM (inactive).
On to `O=C(c1ccncc1)n1nc(-c2ccccc2)c(/N=N/c2ccccc2[N+](=O)[O-])c1-c1ccccc1`, for which the GI50 was 70.3 µM (inactive) in the experiment with A498; > 100 µM (inactive) in the experiment with SK-OV-3; 15.7 µM (inactive) in the experiment with SNB-75; 36.3 µM (inactive) with K562; 45 µM (inactive) with OVCAR-3; 46.2 µM (inactive) in the experiment with HL-60. The GI50 in the experiment with SNB-19 was 36.9 µM (inactive); with SK-MEL-5, 21.6 µM (inactive); in the experiment with SK-MEL-28 it was > 100 µM (inactive); in the experiment on A549, 39.4 µM (inactive); in the experiment with HOP-92 it was 35.6 µM (inactive); with 786-0, 76 µM (inactive). In the experiment on RPMI-8226, the GI50 is 28.3 µM (inactive).
As to `C/C(CC(=O)Nc1cc(C)ccc1C)=N\NC(=O)c1ccncc1`, the GI50 in the experiment with NCI-H226, in the experiment with SK-OV-3, in the experiment on SNB-75, in the experiment with K562, with OVCAR-3 and in the experiment with HL-60 was > 100 µM (inactive) each time. Besides, the GI50 in the experiment with SK-MEL-5 is > 100 µM (inactive); with SK-MEL-28 it was > 100 µM (inactive); in the experiment with RXF 393, > 100 µM (inactive); in the experiment on A549, > 100 µM (inactive); in the experiment with HOP-92, 79.6 µM (inactive); in the experiment with LOX IMVI it was > 100 µM (inactive). The GI50 in the experiment on 786-0 and in the experiment with RPMI-8226 was > 100 µM (inactive) throughout.
`COc1ccc(-c2cc(O)c3ccc(F)cc3n2)cc1`: the GI50 with NCI-H226, in the experiment on SK-OV-3, with SNB-75, with K562, in the experiment on OVCAR-3 and with HL-60 was > 100 µM (inactive) throughout. Also, the GI50 in the experiment with SNB-19, in the experiment with SK-MEL-5, in the experiment with SK-MEL-28, in the experiment on RXF 393, in the experiment with A549 and with HOP-92 was > 100 µM (inactive) each time. Besides, the GI50 in the experiment with LOX IMVI, in the experiment on 786-0 and in the experiment with RPMI-8226 was > 100 µM (inactive) each time.
Regarding `COc1cc2c(cc1OC(=O)CC(C)O)C1C(OC2=O)C(OC(C)=O)C=C2CCN(C)[C@H]21` (stereo partly drawn), the GI50 was 17.2 µM (inactive) in the experiment on A498; 27.5 µM (inactive) in the experiment on NCI-H226; 15.9 µM (inactive) with SK-OV-3; 16.1 µM (inactive) with SNB-75; > 100 µM (inactive) in the experiment on K562; 38.4 µM (inactive) with OVCAR-3. Also, the GI50 in the experiment on SNB-19 is 20.7 µM (inactive); with SK-MEL-5, 38.1 µM (inactive); with SK-MEL-28, 29 µM (inactive); with A549, 64.3 µM (inactive); in the experiment with HOP-92 it was 17.3 µM (inactive); with LOX IMVI, 40.4 µM (inactive). Besides, the GI50 with 786-0 is 17.9 µM (inactive).
Turning to `COc1cc(C(O)C(=O)c2cnc3cc([N+](=O)[O-])ccc3n2)ccc1O` (stereo not drawn), the GI50 is > 100 µM (inactive) in the experiment on A498; > 100 µM (inactive) in the experiment with SK-OV-3; > 100 µM (inactive) with SNB-75; > 100 µM (inactive) in the experiment on K562; 86.5 µM (inactive) in the experiment on HL-60; > 100 µM (inactive) in the experiment on SNB-19. Further, the GI50 is > 100 µM (inactive) in the experiment on SK-MEL-5; 64.1 µM (inactive) in the experiment with RXF 393; > 100 µM (inactive) in the experiment on A549; 77.8 µM (inactive) with LOX IMVI; > 100 µM (inactive) in the experiment on 786-0; > 100 µM (inactive) with RPMI-8226. In addition, the GI50 with HCT-15 was above 100 µM.
Turning to `S=C(Nc1ccccc1)Nc1[nH]c(=S)sc1-c1nc2ccccc2[nH]1`, the GI50 in the experiment on A498 was > 100 µM (inactive); with NCI-H226, 12.2 µM (inactive); in the experiment with SK-OV-3, 37.9 µM (inactive); in the experiment on SNB-75, 38.5 µM (inactive); in the experiment on K562, > 100 µM (inactive); in the experiment with OVCAR-3 it was 30.6 µM (inactive). The GI50 was > 100 µM (inactive) with HL-60; 36.9 µM (inactive) in the experiment on SNB-19; 28.8 µM (inactive) in the experiment with SK-MEL-5; 73.5 µM (inactive) with SK-MEL-28; > 100 µM (inactive) in the experiment with RXF 393; 65.6 µM (inactive) in the experiment on A549. Also, the GI50 is 61.4 µM (inactive) in the experiment with LOX IMVI, 34.2 µM (inactive) with 786-0, 97.3 µM (inactive) in the experiment on RPMI-8226 and 98.2 µM with HCT-15.
For the molecule `NNC(=O)C(=O)N/N=C1\CCC(=O)CC1C(=O)CCC(=O)Nc1ccc(Cl)cc1` (stereo not drawn), the GI50 in the experiment on A498 is > 100 µM (inactive); in the experiment with NCI-H226, > 100 µM (inactive); in the experiment on SK-OV-3, > 100 µM (inactive); in the experiment on SNB-75, 39.4 µM (inactive); with K562, > 100 µM (inactive); in the experiment on OVCAR-3 it was 95.3 µM (inactive). In addition, the GI50 in the experiment with HL-60 was > 100 µM (inactive); in the experiment on SNB-19 it was > 100 µM (inactive); in the experiment with SK-MEL-5, > 100 µM (inactive); with SK-MEL-28, > 100 µM (inactive); with RXF 393, 72.4 µM (inactive); in the experiment with A549, > 100 µM (inactive). Also, the GI50 with LOX IMVI is > 100 µM (inactive); in the experiment on 786-0, > 100 µM (inactive); in the experiment with RPMI-8226 it was > 100 µM (inactive); in the experiment on HCT-15, 94.8 µM.
With `O=C(Cc1nc2c3c(ccc2nc1O)C(=O)c1ccccc1C3=O)C(=O)Nc1ccccc1[N+](=O)[O-]`, the GI50 in the experiment on NCI-H226 was 20.6 µM (inactive); with SK-OV-3, 60 µM (inactive); in the experiment with K562, 12.6 µM (inactive); with OVCAR-3, 11.5 µM (inactive); in the experiment on HL-60, 14.5 µM (inactive); in the experiment on SNB-19, 16.6 µM (inactive). Besides, the GI50 in the experiment with SK-MEL-5 was 18.3 µM (inactive); in the experiment with SK-MEL-28, 16.1 µM (inactive); in the experiment on A549 it was 49.4 µM (inactive); in the experiment with HOP-92 it was 20.7 µM (inactive); in the experiment with LOX IMVI it was 16.5 µM (inactive); in the experiment on 786-0, 15.3 µM (inactive). For the same molecule, the GI50 in the experiment on RPMI-8226 was 11.4 µM (inactive); in the experiment with HCT-15, above 10 µM.
